Data set [1] has as its system proteasome in MV4‐11 cells. In words: Cellular conversion of fluorogenic proteasome substrates (assay validation). It counts as cell-based. As for the experimental part:
First, we benchmarked the fluorogenic substrate 30 towards the standard substrate 31 (Suc‐LLVY‐AMC) using varying substrate concentrations and cell numbers of MV4‐11 cells (Figure 5b). The highest substrate conversion was detected using 100 μM 30 in 50.000 cells (135 rfu/min) in MV4‐11 cells and was converted ∼4 times faster than 31 (33.3 rfu/min). There was an increase of differences in conversion rates with smaller number of cells (10.000 cells, 100 μM substrate: 10‐fold conversion) and lower substrate concentration (50.000 cells, 25 μM substrate: 15‐fold conversion).
In‐cell determination of proteasome IC 50. […] Inhibitors were serially diluted in RPMI‐1640 medium as 10‐fold stocks, added to cells giving final concentrations and incubated for 0 h–13 h at 37 °C and 5 % CO2 (Figure S5–S8). Substrate was added to give a final concentration of 30 μM and substrate conversion was detected by fluorescence measurement over 100 min (assay validation) or 60 min (inhibition assays) using a Tecan M1000 microplate reader. Rate of fluorescence change over time was calculated, rates for negative (no‐cell) control was subtracted and normalized to positive control (no inhibitor). Dose‐response curves were fitted to the equation “Y=100/(1+10^((L°^gIC50−X)*HillSl°^pe))” using GraphPad Prism 7.02 (SI chapter 2b, Figure S2–S4).

A further data set concerns Danio rerio embryos. In words: Danio rerio embryo toxicity assay (not dechorionated). It counts as in vivo. The protocol:
Danio rerio embryo toxicity assay. Fish keeping protocols are approved by the Darmstadt administrative authority and documented. All fish were treated humanely. […] Embryos were decollated into separate wells containing a total volume of 200 μL and the inhibitor at the given concentration.

Data set [2] deals with T1, β1c subunit of isolated human 20S proteasome (Homo sapiens, UniProt P28072).
T1 construct: purchased Enzo Life Sciences
In words: Proteasome inhibition assay (20 S Proteasome Assay Kit, Z‐LLE‐AMC). In kind it is biochemical. The note with it: c = 1 µM, n=1; read-out: Inhibition cCP β1. In a few lines: (§1)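 Isolated human 20S proteasome (200 ng/well) preincubated 30 min with inhibitor, then 100 μM final Suc-LLVY-AMC (β5c, β5i) or Z-LLE-AMC (β1c) added for 60 min; fluorescence read. Residual activity at 100 nM final (n=3; β5c, β5i) or 1 μM (n=1, incl. β1c). IC50s: technical duplicates, mean of three experiments.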

Data set [3] deals with THP‐1 cells. The data set can be described thus: Cell viability endpoint assay (Celltiter Blue, 72 h). In kind it is cell-based. The note with it: Homo sapiens, mean±SD from two independent experiments. The method, boiled down:
(§2)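 Proteasome inhibitors were tested at 1 nM to 10 μM final on 50.000 cells/well in RPMI-1640 with 0.1 % FBS, plated overnight beforehand, at 37 °C and 5 % CO2. Reagent was incubated 120 minutes before the fluorescence read. IC50 came from a sigmoidal fit of technical triplicates, as the mean of two independent experiments.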

The subject of another data set is Jurkat cells. The description is as above. It counts as cell-based. The note with it: Homo sapiens, mean±SD from two independent experiments. The method, boiled down:
as §2

The test system of the next data set is MV4‐11 cells. The data set is described as above. It counts as cell-based. The note with it: Homo sapiens, MV4-11, mean±SD from two independent experiments. The method, boiled down:
as §2

Data set [4] has as its target T2, β2c subunit of isolated human 20S proteasome (Homo sapiens, UniProt Q99436).
T2 construct: purchased Enzo Life Sciences
In words: Proteasome inhibition assay (20 S Proteasome Assay Kit, Bz‐VGR‐AMC). In kind it is biochemical. The note with it: c = 1 µM, n=1; read-out: Inhibition cCP β2. The method, boiled down: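 Isolated 20S proteasome (200 ng/well) was preincubated 30 min with inhibitor, then Bz-VGR-AMC (100 μM final) was added for 60 min and fluorescence read. Single-point residual activity was taken at 100 nM or 1 μM; IC50 was fitted from duplicates, mean of three independent experiments.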

Data set [5] addresses T3, β5c subunit of isolated human 20S proteasome (Homo sapiens, UniProt P28074).
T3 construct: purchased Enzo Life Sciences
The data set can be described thus: Proteasome inhibition assay (20 S Proteasome Assay Kit, Suc‐LLVY‐AMC). In kind it is biochemical. The note with it: for inhibition at 1 µM: c = 1 µM, n=1, read-out: Inhibition cCP β5; for inhibition at 0.1 µM: c=100 nM, read-out: Rel. Inhibition β5c; for IC50: purified proteasome; for Fold‐IC50 β5i/β5c: selectivity β5c over β5i. The method, boiled down:
as §1

In data set [6] the target is T4, β5i subunit of isolated human 20S proteasome (Homo sapiens, UniProt P28062).
T4 construct: purchased Enzo Life Sciences
The data set is described as above. In kind it is biochemical. The note with it: for inhibition at 1 µM: c = 1 µM, n=1, read-out: Inhibition iCP β5; for inhibition at 0.1 µM: c=100 nM, read-out: Rel. Inhibition β5i; for IC50: purified proteasome. The method, boiled down:
as §1

A short description of another data set: in vitro. In kind it is cell-based. The note with it: human. The protocol: (§3) Remarkably, in THP‐1 cells the initial cytotoxicity is increasing for 3 compared to 27 until 14 h treatment (9‐fold) but is approaching to the end of the assay.
(§4) Time‐dependent determination of cell viability. For the determination of time‐dependent cytotoxic activity 5.000 cells per well were plated in a white 384 well‐plate in RPMI‐1640 medium supplemented with 0.1 % FBS. Real‐Time Glo MT cell viability assay (Promega) and inhibitor were added to the final concentration and luminescence was determined using a Tecan M1000 microplate reader at the time points indicated (SI chapter 2b, Figure S9–S17, Table S2).

In data set [7] the test system is THP‐1 cells. It counts as cell-based. The protocol: as §3, §4
Data set [8] deals with proteasome in MV4‐11 cells. In words: In‐cell determination of proteasome IC50 (conversion of substrate 30). In kind it is cell-based. The note with it: MV4-11, without pre‐incubation. As for the experimental part: In‐cell determination of proteasome IC 50. […] Substrate was added to give a final concentration of 30 μM and substrate conversion was detected by fluorescence measurement over 100 min (assay validation) or 60 min (inhibition assays) using a Tecan M1000 microplate reader. Rate of fluorescence change over time was calculated, rates for negative (no‐cell) control was subtracted and normalized to positive control (no inhibitor).

Setting [9] is: 100 μM substrate, 50.000 MV4‐11 cells.

Data on 5 compounds can be found in paper PMC6916368, “Cell‐Based Optimization of Covalent Reversible Ketoamide Inhibitors Bridging the Unprimed to the Primed Site of the Proteasome β5 Subunit” (Chemmedchem, 2019).

Numbered stars: 1 amine (or outer) side, 2 acyl side, 3 side chain; on linkers, the order of the positions; unused ones are H or OH. Peptide text beside a SMILES is read from it. * marks the point of attachment. AMC = Cc1cc(=O)oc2cc(N*)ccc12; Suc = O=C(CCC(=O)[*:2])[*:1]; Cbz = O=C(OCc1ccccc1)*; OtBu = CC(C)(C)O*

`Cc1cc(=O)oc2cc(NC(=O)[C@H](Cc3ccc(O)cc3)NC(=O)[C@@H](NC(=O)[C@H](CC(C)C)NC(=O)[C@H](CC(C)C)NC(=O)CCC(=O)O)C(C)C)ccc12` [Compound 31, Suc‐LLVY‐AMC] (Suc-LLVY-{AMC}): the substrate conversion in [1] (setting [9]) came out at 33.3 rfu/min.

In the case of `Cc1cc(=O)oc2cc(NC(=O)[C@H](C)NC(=O)[C@H](CC(=O)OC(C)(C)C)NC(=O)[C@H](CC(C)C)NC(=O)OCc3ccccc3)ccc12` [Compound 30, Z‐LD(OtBu)A‐AMC] (Cbz-Leu-Asp(OtBu)-Ala-{AMC}), the “conversion of 30 relative to 31” value was about 4 times in data set [1] (setting [9]); 10 fold in [1] (10.000 cells, 100 μM substrate); 15 fold in [1] (50.000 cells, 25 μM substrate). In addition, the substrate conversion in [1] (setting [9]) was 135 rfu/min.

As to `CC(C)C[C@H](NC(=O)OCc1ccccc1)C(=O)N[C@@H](CC(C)C)C(=O)N[C@@H](CC(C)C)C(=O)C(=O)Nc1cccc(Oc2ccccc2)c1` [Compound 9, Benzyl‐((S)‐4‐methyl‐1‐(((S)‐4‐methyl‐1‐(((S)‐5‐methyl‐1,2‐dioxo‐1‐((3‐phenoxyphenyl)‐amino)hexan‐3‐yl)amino)‐1‐oxopentan‐2‐yl)amino)‐1‐oxopentan‐2‐yl)carbamate], the “Survival of embryos (not dechorionated)” value in the data set with Danio rerio embryos (1 µM, 24 h) is given as 100%; in the data set with Danio rerio embryos (1 µM, 48 h), 100%; with Danio rerio embryos (1 µM, 72 h), 100%; in the data set on Danio rerio embryos (1 µM, 96 h), 100%; with Danio rerio embryos (5 µM, 24 h), 100%; with Danio rerio embryos (5 µM, 48 h) it was 100%. For the same compound, the “Survival of embryos (not dechorionated)” value in the data set with Danio rerio embryos (5 µM, 72 h) was determined as 100%; in the data set on Danio rerio embryos (5 µM, 96 h), 100%; in the data set on Danio rerio embryos (10 µM, 24 h), 100%; with Danio rerio embryos (10 µM, 48 h), 100%; in the data set with Danio rerio embryos (10 µM, 72 h) it was 100%; with Danio rerio embryos (10 µM, 96 h) it was 100%. Also, the “Survival of embryos (not dechorionated)” value in the data set on Danio rerio embryos (25 µM, 24 h) is reported as 100%; with Danio rerio embryos (25 µM, 48 h), 100%; with Danio rerio embryos (25 µM, 72 h) it was 100%; with Danio rerio embryos (25 µM, 96 h), 100%. In addition, the inhibition at 1 µM was found to be 0% in [2], 9% in data set [4], 81% in data set [5] and 31% in data set [6]. For the same compound, the half-inhibitory concentration (IC50) with THP‐1 cells [3] was determined as 0.03 ± 0.01 µM; in the data set with Jurkat cells it was 0.024 ± 0.004 µM; with MV4‐11 cells it was 0.018 ± 0.003 µM; in data set [5] it was 0.066 µM; in data set [6], 0.17 µM. Also, the inhibition at 0.1 µM stood at 56% in data set [5] and 23% in data set [6]. In addition, in data set [5], the “Fold‐IC50 β5i/β5c” value stood at 2.6.

As to `CC(C)C[C@H](NC(=O)[C@H](CCc1ccccc1)NC(=O)CN1CCOCC1)C(=O)N[C@@H](Cc1ccccc1)C(=O)N[C@@H](CC(C)C)C(=O)[C@@]1(C)CO1` [Carfilzomib 3, Carfilzomib], the half-inhibitory concentration (IC50) at 13 h in the data set “in vitro” fell in the range of 0.05 to 0.4 µM. Also, the “Survival of embryos (not dechorionated)” value came to 100% in the data set on Danio rerio embryos (1 µM, 24 h); 100% in the data set with Danio rerio embryos (1 µM, 48 h); 100% in the data set on Danio rerio embryos (1 µM, 72 h); 100% in the data set on Danio rerio embryos (1 µM, 96 h); 100% in the data set on Danio rerio embryos (5 µM, 24 h); 100% in the data set on Danio rerio embryos (5 µM, 48 h). The “Survival of embryos (not dechorionated)” value in the data set on Danio rerio embryos (5 µM, 72 h) worked out at 100%; with Danio rerio embryos (5 µM, 96 h), 100%; with Danio rerio embryos (10 µM, 24 h), 100%; with Danio rerio embryos (10 µM, 48 h), 100%; in the data set on Danio rerio embryos (10 µM, 72 h), 100%; in the data set with Danio rerio embryos (10 µM, 96 h), 100%. Moreover, the “Survival of embryos (not dechorionated)” value with Danio rerio embryos (25 µM, 24 h) turned out to be 100%; with Danio rerio embryos (25 µM, 48 h) it was 100%; in the data set with Danio rerio embryos (25 µM, 72 h) it was 100%; in the data set on Danio rerio embryos (25 µM, 96 h) it was 100%. The “cytotoxicity of 3 compared to 27” value in the data set on THP‐1 cells [7] was 9 fold. In addition, the inhibition at 1 µM in data set [2] is -18%; in [4], 37%; in [5], 96%; in data set [6], 91%. Moreover, the IC50 is 0.135 ± 0.039 µM with THP‐1 cells [3], 0.014 ± 0.003 µM in the data set with Jurkat cells and 0.0036 ± 0.0018 µM with MV4‐11 cells. Also, the inhibition at 0.1 µM is 86% in data set [5] and 43% in data set [6].

For the compound `Cc1ccc(NC(=O)C(=O)C(CC(C)C)NC(=O)C(CC(C)C)NC(=O)C(CC(C)C)NC(=O)OCc2ccccc2)c(C)c1` (centres unmarked) [Compound 7, BSc4999], the “Survival of embryos (not dechorionated)” value in the data set on Danio rerio embryos (1 µM, 24 h) was 100%; in the data set on Danio rerio embryos (1 µM, 48 h), 100%; in the data set with Danio rerio embryos (1 µM, 72 h) it was 100%; in the data set on Danio rerio embryos (1 µM, 96 h) it was 100%; with Danio rerio embryos (5 µM, 24 h), 100%; in the data set on Danio rerio embryos (5 µM, 48 h) it was 100%. Also, the “Survival of embryos (not dechorionated)” value was determined as 100% in the data set on Danio rerio embryos (5 µM, 72 h); 100% in the data set with Danio rerio embryos (5 µM, 96 h); 100% with Danio rerio embryos (10 µM, 24 h); 100% in the data set with Danio rerio embryos (10 µM, 48 h); 100% in the data set on Danio rerio embryos (10 µM, 72 h); 100% in the data set with Danio rerio embryos (10 µM, 96 h). Moreover, the “Survival of embryos (not dechorionated)” value stood at 80% with Danio rerio embryos (25 µM, 24 h); 80% in the data set with Danio rerio embryos (25 µM, 48 h); 80% in the data set with Danio rerio embryos (25 µM, 72 h); 80% in the data set with Danio rerio embryos (25 µM, 96 h). In addition, the inhibition at 1 µM in [2] was -26%; in [4], 9%; in data set [5], 92%; in data set [6] it was 74%. Moreover, the “fold more potent than 9 (in-cell conversion of 30)” value in [8] came to 4 fold. Also, the IC50 in the data set on THP‐1 cells [3] turned out to be 0.024 ± 0.0001 µM; with Jurkat cells it was 0.03 ± 0.0003 µM; with MV4‐11 cells, 0.019 ± 0.003 µM; in data set [5], 0.048 µM; in data set [6], 0.204 µM. For the same compound, the inhibition at 0.1 µM was 64% in data set [5] and 33% in data set [6]. Besides, the “Fold‐IC50 β5i/β5c” value in data set [5] is 4.3.
